Converted amounts (≈) assume the structure as drawn.
Columns and labels:
[1] = tested on: human peripheral blood mononuclear cells; test: α TNF production by human peripheral blood mononuclear cells; format: cell-based; details: for α TNF produced: 18 hours
How it was run: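 Ficoll-isolated PBMC from 6 healthy donors (2×10^6 viable cells/ml, RPMI-1640, 10% FCS) exposed in triplicate for 18 h at 37 °C, 5% CO2 to compounds diluted 100-, 10- or 1-fold. Secreted TNF-α measured by chemiluminescent ELISA on 4-fold diluted supernatants against a 0.7–7000 pg/ml standard curve; values in pg/ml.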

bone marrow stem cells = test: bone marrow stem cell proliferation (XTT); format: cell-based, C57/BL6 mice; details: for Max amplitude: 7 days, XTT 492 nm; for Min amplitude: blank ± 3× standard deviation; for Max concentration: concentration at maximum amplitude; for EC50 conc: concentration corresponding to 50% of maximum amplitude; for Min concentration: lowest concentration inducing a significant proliferation
How it was run: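 Marrow cells from 6-week-old male C57/BL6 mice (suspension 500000 cells/ml, DMEM + 20% FCS) were incubated 7 days at 37° C, 8% CO2, with serially diluted products in triplicate. XTT/PMS […] over 8 h was read at 492 nm (690 nm reference). EC50 is the concentration at 50% of maximum amplitude; Min is the lowest concentration exceeding blank ±3 SD.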

[2] = tested on: human peripheral blood mononuclear cells; test: inhibition of E. coli LPS-induced α TNF production in human peripheral blood mononuclear cells; format: cell-based; details: product 10 μg/ml; for 50% inhibition LPS: LPS concentration at which α TNF production is 50% of control; for max. Inhibition LPS: LPS concentration corresponding to maximum inhibition
How it was run: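 PBMC from 6 donors (2×10^6 cells/ml, RPMI/10% FCS) were preincubated 1 h with product (10 μg/ml solution), then 18 h at 37 °C with 10-fold E. coli LPS dilutions (1–0.00001 μg/ml). Secreted TNFα by chemiluminescent ELISA; value is the LPS concentration at 50% inhibition by linear interpolation, plus maximum inhibition.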

Structure (SMILES)	α TNF produced ([1]; product 1 μg/ml) [pg/mL]	α TNF produced ([1]; product 10 μg/ml) [pg/mL]	α TNF produced ([1]; product 100 μg/ml) [pg/mL]	Max amplitude (bone marrow stem cells) [O.D]	Min amplitude (bone marrow stem cells) [O.D]	Max concentration (bone marrow stem cells) [µg/mL]	EC50 conc (bone marrow stem cells) [µg/mL]	Min concentration (bone marrow stem cells) [µg/mL]	max. Inhibition [2] [%]	50% inhibition LPS [2] [µg/mL]	max. Inhibition LPS [2] [µg/mL]	concentration at which a significant α TNF production level is induced ([1]; only at this concentration) [µg/mL]
CCCCCCCCCCCC(=O)O[C@H](CCCCCCCCCCC)CC(=O)N[C@H](CC(=O)O)C(=O)NCCC[C@H](COC(=O)CCCCCNC(=O)CCC(=O)OC[C@H]1O[C@@H](n2cc(C)c(=O)[nH]c2=O)C[C@@H]1N=[N+]=[N-])NC(=O)C[C@H](O)CCCCCCCCCCC [OM-197-MC-AC-Succ-AZT]	108	224	64	1.08	0.80	12.5	3.3 (≈ 2.48 µM)	2.11	100	0.45	0.0005	–
CCCCCCCCCCCC(=O)O[C@H](CCCCCCCCCCC)CC(=O)N[C@H](CC(=O)O)C(=O)NCCC[C@H](CO)NC(=O)C[C@H](O)CCCCCCCCCCC [OM-197-MC, N—[(R)-3-dodecanoyloxytetradecanoyl]-D-aspartic acid, α-N-{(4R)-5-hydroxy-4[(R)-3-hydroxytetradecanoylamino]-pentyl}amide]	0	0	12	1.75	0.80	64	19.4 (≈ 22.3 µM)	1.25	100	1	0.0043	100

From patent US8173133B2, “Acyl pseudodipeptides which carry a functionalized auxiliary arm” (OM Pharma, priority 1999, dated 2012)
